Reference: PubChem BioAssay AID1259407 (Chemical Carcinogenesis Research Information System (CCRIS), 2018)
Calls of active or inactive are those of the source. The rule behind the calls is not given here.

Tested on: CCRIS mutagenicity, Ames/micronucleus/aberration tests
Assay: CCRIS mutagenicity studies
[1] = Test System: AMES SALMONELLA TYPHIMURIUM, Strain/Indicator: TA98, Metabolic Activation: NONE, Method: STANDARD PLATE
[2] = Test System: AMES SALMONELLA TYPHIMURIUM, Strain/Indicator: TA100, Metabolic Activation: NONE, Method: STANDARD PLATE
[3] = Test System: AMES SALMONELLA TYPHIMURIUM, Strain/Indicator: TA98, Metabolic Activation: NONE, Method: PREINCUBATION
[4] = Test System: AMES SALMONELLA TYPHIMURIUM, Strain/Indicator: TA100, Metabolic Activation: NONE, Method: PREINCUBATION
[5] = Test System: AMES SALMONELLA TYPHIMURIUM, Strain/Indicator: TA1535, Metabolic Activation: NONE, Method: PREINCUBATION
[6] = Test System: AMES SALMONELLA TYPHIMURIUM, Strain/Indicator: TA1537, Metabolic Activation: NONE, Method: PREINCUBATION

S=C([S-])NCCNC(=S)[S-].[Zn+2]
mutagenic call [1]: inactive; negative | mutagenic call (Test System: AMES SALMONELLA TYPHIMURIUM, Strain/Indicator: TA98, Metabolic Activation: RAT, LIVER, S-9, AROCLOR 1254, Method: STANDARD PLATE): inactive; negative | mutagenic call [2]: inactive; negative | mutagenic call (Test System: AMES SALMONELLA TYPHIMURIUM, Strain/Indicator: TA100, Metabolic Activation: RAT, LIVER, S-9, AROCLOR 1254, Method: STANDARD PLATE): inactive; negative | mutagenic call (Test System: AMES SALMONELLA TYPHIMURIUM, Strain/Indicator: TA1535, Metabolic Activation: NONE, Method: STANDARD PLATE): inactive; negative | mutagenic call (Test System: AMES SALMONELLA TYPHIMURIUM, Strain/Indicator: TA1535, Metabolic Activation: RAT, LIVER, S-9, AROCLOR 1254, Method: STANDARD PLATE): inactive; negative | mutagenic call (Test System: AMES SALMONELLA TYPHIMURIUM, Strain/Indicator: TA1537, Metabolic Activation: NONE, Method: STANDARD PLATE): inactive; negative | mutagenic call (Test System: AMES SALMONELLA TYPHIMURIUM, Strain/Indicator: TA1537, Metabolic Activation: RAT, LIVER, S-9, AROCLOR 1254, Method: STANDARD PLATE): inactive; negative | mutagenic call (Test System: E. COLI, Strain/Indicator: WP2, Metabolic Activation: NONE, Method: STANDARD PLATE): inactive; negative | mutagenic call (Test System: E. COLI, Strain/Indicator: WP2, Metabolic Activation: RAT, LIVER, S-9, AROCLOR 1254, Method: STANDARD PLATE): inactive; negative

Cc1ccc2ccc([N+](=O)[O-])cc2c1
mutagenic call [3]: active; positive

CCN(CC)CCO
mutagenic call (Test System: AMES SALMONELLA TYPHIMURIUM, Strain/Indicator: TA98, Metabolic Activation: HAMSTER, LIVER, S-9, AROCLOR 1254 (10%), Method: PREINCUBATION): inactive; negative | mutagenic call [3]: inactive; negative | mutagenic call (Test System: AMES SALMONELLA TYPHIMURIUM, Strain/Indicator: TA98, Metabolic Activation: RAT, LIVER, S-9, AROCLOR 1254 (10%), Method: PREINCUBATION): inactive; negative | mutagenic call (Test System: AMES SALMONELLA TYPHIMURIUM, Strain/Indicator: TA100, Metabolic Activation: HAMSTER, LIVER, S-9, AROCLOR 1254 (10%), Method: PREINCUBATION): inactive; negative | mutagenic call [4]: inactive; negative | mutagenic call (Test System: AMES SALMONELLA TYPHIMURIUM, Strain/Indicator: TA100, Metabolic Activation: RAT, LIVER, S-9, AROCLOR 1254 (10%), Method: PREINCUBATION): inactive; negative | mutagenic call (Test System: AMES SALMONELLA TYPHIMURIUM, Strain/Indicator: TA1535, Metabolic Activation: HAMSTER, LIVER, S-9, AROCLOR 1254 (10%), Method: PREINCUBATION): inactive; negative | mutagenic call [5]: inactive; negative | mutagenic call (Test System: AMES SALMONELLA TYPHIMURIUM, Strain/Indicator: TA1535, Metabolic Activation: RAT, LIVER, S-9, AROCLOR 1254 (10%), Method: PREINCUBATION): inactive; negative | mutagenic call (Test System: AMES SALMONELLA TYPHIMURIUM, Strain/Indicator: TA1537, Metabolic Activation: HAMSTER, LIVER, S-9, AROCLOR 1254 (10%), Method: PREINCUBATION): inactive; negative | mutagenic call [6]: inactive; negative | mutagenic call (Test System: AMES SALMONELLA TYPHIMURIUM, Strain/Indicator: TA1537, Metabolic Activation: RAT, LIVER, S-9, AROCLOR 1254 (10%), Method: PREINCUBATION): inactive; negative

CC(C)(C#N)N=NC(C)(C)C#N
mutagenic call (Test System: AMES SALMONELLA TYPHIMURIUM, Strain/Indicator: TA98, Metabolic Activation: HAMSTER, LIVER, S-9, AROCLOR 1254, Method: PREINCUBATION): inactive; negative | mutagenic call [3]: inactive; negative | mutagenic call (Test System: AMES SALMONELLA TYPHIMURIUM, Strain/Indicator: TA98, Metabolic Activation: RAT LIVER S-9, PHENOBARBITAL AND BETA-NAPHTHOFLAVONE, Method: PREINCUBATION): inactive; negative | mutagenic call (Test System: AMES SALMONELLA TYPHIMURIUM, Strain/Indicator: TA98, Metabolic Activation: RAT, LIVER, S-9, AROCLOR 1254, Method: PREINCUBATION): inactive; negative | mutagenic call (Test System: AMES SALMONELLA TYPHIMURIUM, Strain/Indicator: TA100, Metabolic Activation: HAMSTER, LIVER, S-9, AROCLOR 1254, Method: PREINCUBATION): inactive; negative | mutagenic call [4]: inactive; negative | mutagenic call (Test System: AMES SALMONELLA TYPHIMURIUM, Strain/Indicator: TA100, Metabolic Activation: RAT LIVER S-9, PHENOBARBITAL AND BETA-NAPHTHOFLAVONE, Method: PREINCUBATION): inactive; negative | mutagenic call (Test System: AMES SALMONELLA TYPHIMURIUM, Strain/Indicator: TA100, Metabolic Activation: RAT, LIVER, S-9, AROCLOR 1254, Method: PREINCUBATION): inactive; negative | mutagenic call (Test System: AMES SALMONELLA TYPHIMURIUM, Strain/Indicator: TA1535, Metabolic Activation: HAMSTER, LIVER, S-9, AROCLOR 1254, Method: PREINCUBATION): inactive; negative | mutagenic call [5]: inactive; negative | mutagenic call (Test System: AMES SALMONELLA TYPHIMURIUM, Strain/Indicator: TA1535, Metabolic Activation: RAT LIVER S-9, PHENOBARBITAL AND BETA-NAPHTHOFLAVONE, Method: PREINCUBATION): inactive; negative | mutagenic call (Test System: AMES SALMONELLA TYPHIMURIUM, Strain/Indicator: TA1535, Metabolic Activation: RAT, LIVER, S-9, AROCLOR 1254, Method: PREINCUBATION): inactive; negative | mutagenic call (Test System: AMES SALMONELLA TYPHIMURIUM, Strain/Indicator: TA1537, Metabolic Activation: HAMSTER, LIVER, S-9, AROCLOR 1254, Method: PREINCUBATION): inactive; negative | mutagenic call [6]: inactive; negative | mutagenic call (Test System: AMES SALMONELLA TYPHIMURIUM, Strain/Indicator: TA1537, Metabolic Activation: RAT LIVER S-9, PHENOBARBITAL AND BETA-NAPHTHOFLAVONE, Method: PREINCUBATION): inactive; negative | mutagenic call (Test System: AMES SALMONELLA TYPHIMURIUM, Strain/Indicator: TA1537, Metabolic Activation: RAT, LIVER, S-9, AROCLOR 1254, Method: PREINCUBATION): inactive; negative | mutagenic call (Test System: AMES SALMONELLA TYPHIMURIUM, Strain/Indicator: TA1538, Metabolic Activation: HAMSTER, LIVER, S-9, AROCLOR 1254, Method: PREINCUBATION): inactive; negative | mutagenic call (Test System: AMES SALMONELLA TYPHIMURIUM, Strain/Indicator: TA1538, Metabolic Activation: NONE, Method: PREINCUBATION): inactive; negative | mutagenic call (Test System: AMES SALMONELLA TYPHIMURIUM, Strain/Indicator: TA1538, Metabolic Activation: RAT LIVER S-9, PHENOBARBITAL AND BETA-NAPHTHOFLAVONE, Method: PREINCUBATION): inactive; negative | mutagenic call (Test System: AMES SALMONELLA TYPHIMURIUM, Strain/Indicator: TA1538, Metabolic Activation: RAT, LIVER, S-9, AROCLOR 1254, Method: PREINCUBATION): inactive; negative | mutagenic call (Test System: E.COLI, Strain/Indicator: WP2UVRA, Metabolic Activation: NONE, Method: PREINCUBATION): inactive; negative | mutagenic call (Test System: E.COLI, Strain/Indicator: WP2UVRA, Metabolic Activation: RAT LIVER S-9, PHENOBARBITAL AND BETA-NAPHTHOFLAVONE, Method: PREINCUBATION): inactive; negative | mutagenic call (Test System: MOUSE LYMPHOMA, Strain/Indicator: L5178Y (TK+/TK-), Metabolic Activation: NONE, Method: SUSPENSION/PLATE): inactive; negative. reevaluation of results: negative | mutagenic call (Test System: MOUSE LYMPHOMA, Strain/Indicator: L5178Y (TK+/TK-), Metabolic Activation: RAT, LIVER, S-9, AROCLOR 1254, Method: SUSPENSION/PLATE): inactive; negative. reevaluation of results: negative

Nc1ccc(/C=C/c2cccc(Cl)c2)cc1
mutagenic call (Test System: AMES SALMONELLA TYPHIMURIUM, Strain/Indicator: TA98(1,8-DNP6), Metabolic Activation: NONE, Method: STANDARD PLATE): inactive; negative | mutagenic call (Test System: AMES SALMONELLA TYPHIMURIUM, Strain/Indicator: TA98(1,8-DNP6), Metabolic Activation: S-9, Method: STANDARD PLATE): active; positive | mutagenic call [1]: active; positive | mutagenic call (Test System: AMES SALMONELLA TYPHIMURIUM, Strain/Indicator: TA98, Metabolic Activation: S-9, Method: STANDARD PLATE): active; positive | mutagenic call [2]: inactive; negative | mutagenic call (Test System: AMES SALMONELLA TYPHIMURIUM, Strain/Indicator: TA100, Metabolic Activation: S-9, Method: STANDARD PLATE): active; positive
